A short description of this data set: case series: professional polishing of the six lower front teeth of heavy calculus formers with MCC paste. Format: in vivo, human. As for the experimental part:
This is an example of a series of cases of patients who have been confirmed as heavy calculus formers that were treated with the 1:1 metal complex. Generally, the medication utilized was composed of the active ingredient, disodium monocopper(II) citrate (MCC), C.A.S. Registry Number: 65330-59-8, dispersed in an aqueous vehicle comprising aluminum hydroxide, dicalcium phosphate, sorbitol, carboxymethylcellulose and water to form a paste. All of the cases incorporated herewith, as an example, were confirmed diagnostically by a dentist employing the usual examining techniques, i.e., physical examination, etc. The ages of the patients who participated in this example ranged from 35 to 73 years.
All of the patients in this example, prior to their treatment with the 1:1 metal complexes, had self-treated. In self-treating, all patients brushed with a standard dentifrice, flossed, and applied a mixture of baking soda, salt and water to their teeth at least once a day to contain or control calculus build up. Subsequent to and in conjunction with self-treatment, each patient received professionally a standard course of therapy which involved routinely scaling the teeth with a hand pick and an ultrasonic scaler and polishing the teeth mechanically with a mixture of pumice and stannous fluoride via a rubber prophylaxis cup. The patients in this example were treated every 3, 4 or 6 months and the length of standard treatment by the dentist ranged from about 4 years to about 12 years.
At the time of the first examination by the dentist, each patient's mouth was in extremely poor condition, and gross calculus build up was observed; however, no caries or restorations were present.
Subsequent to the standard professional therapy, treatment of all sides of the six lower front teeth with MCC were initiated and performed by the dentist every 3, 4 or 6 months for a total of 10 months. Treatment consisted of first scaling the six lower front teeth with a hand pick and an ultrasonic scaler to debride the teeth and then polishing the teeth mechanically with the above described MCC mixture via a rubber prophylaxis cup. […] The overall appearance of the six lower front teeth was excellent. […] For a more detailed presentation of this example, see the following table.

Molecules are shown by their SMILES. Where “and” joins values, the source holds several entries; their conditions need not be identical. Equal entries are not always repeated.

`O=C([O-])CC(O)(CC(=O)[O-])C(=O)O.[Cu+2]` [MCC, disodium-monocopper(II) citrate]: where the note is “Calculus Accumulation code 1 = worst condition, 10 = best condition (total absence of accumulation), one value per patient, six lower front teeth, MCC paste every 3, 4 or 6 months for 10 months”, the “Amt. of Calculus after Application of MCC” value was “+8 (2×) and +9 (2×) and +7”. Besides, for the setting “after therapy with the copper complex”, the “overall appearance of the six lower front teeth” value is reported as “excellent”. Besides, the “calculus accumulation on the six lower front teeth” value (all patients, compared to the remaining teeth treated with the standard therapy) was “dramatic reduction in calculus accumulation”. Besides, for the setting “five patients, treatment over 10 months”, the “side effects or tissue irritation” value is given as “no side effects or tissue irritation”. Moreover, the taste complaint result (two of five patients) is recorded as “metallic taste from the MCC mixture which subsided immediately upon rinsing”.

The record behind these values is patent EP0267994B2, “The use of a metal complex for the manufacture of a composition for treating dental structures” (NATIONAL RESEARCH LABORATORIES, priority 1986, dated 1988).
